In this assay the test system is P388 leukemia ip, CD2F1 mice, survival T/C. The assay can be described thus: NCI In Vivo Anticancer Drug Screen. Data for tumor model P388 Leukemia (intraperitoneal) in CD2F1 (CDF1) mice. The settings on record: endpoint: median survival time, higher = longer survival. The method, boiled down: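 Mice carrying the transplanted tumor received test compound or vehicle. Survival was recorded in each group, and the value is the treated-group measurement divided by that of the vehicle-treated control group.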

[1] abbreviates: dose: 50.0 mg/kg/injection, schedule: Q01DX005 (ip), vehicle: saline.
Setting [2] is: dose: 50.0 mg/kg/injection, schedule: Q01DX005 (ip), vehicle: Klucel (hydroxypropylcellulose) (HPC).
Where [3] appears, read: dose: 100.0 mg/kg/injection, schedule: Q01DX005 (ip), vehicle: Klucel (hydroxypropylcellulose) (HPC).
Where [4] appears, read: dose: 200.0 mg/kg/injection, schedule: Q01DX005 (ip), vehicle: Klucel (hydroxypropylcellulose) (HPC).
Where [5] appears, read: dose: 50.0 mg/kg/injection, schedule: Q01DX009 (ip), vehicle: saline.
The mark [6] stands for this setting: dose: 100.0 mg/kg/injection, schedule: Q01DX009 (ip), vehicle: saline.
[7] abbreviates: dose: 200.0 mg/kg/injection, schedule: Q01DX009 (ip), vehicle: saline.
The mark [8] stands for this setting: dose: 1.0 mg/kg/injection, schedule: Q01DX009 (ip), vehicle: saline.
Setting [9] is: dose: 50.0 mg/kg/injection, schedule: Q01DX009 (ip), vehicle: saline with Tween-80.
[10] abbreviates: dose: 100.0 mg/kg/injection, schedule: Q01DX009 (ip), vehicle: saline with Tween-80.
[11] abbreviates: dose: 200.0 mg/kg/injection, schedule: Q01DX009 (ip), vehicle: saline with Tween-80.

Several values for one entry are separate records, joined by “and”; a condition that tells them apart may be missing. Equal entries are not always repeated. Toxic doses and inconclusive results are not listed.

As to `CCCN=C(C)NO`, the T/C runs as follows: under setting [1], 98 % of control; (dose: 100.0 mg/kg/injection, schedule: Q01DX005 (ip), vehicle: saline) 101 % of control; (dose: 200.0 mg/kg/injection, schedule: Q01DX005 (ip), vehicle: saline) 102 % of control.

On to `Cc1ccc(NC(=O)N2CC(C)OC(C)C2)cc1[N+](=O)[O-]` (stereo unspecified), for which the T/C under setting [2] is 103 % of control, the T/C under setting [3] was 99 % of control and the T/C under setting [4] was 94 % of control.

Take `CCC[As](CCC)SC1CC(OC(=O)c2ccccc2)C(OC(=O)c2ccccc2)C(COC(=O)c2ccccc2)O1` (stereo unspecified): the T/C is, setting by setting: (dose: 50.0 mg/kg/injection, schedule: Q01DX009 (ip), vehicle: saline + alcohol) 100 % of control; (dose: 100.0 mg/kg/injection, schedule: Q01DX009 (ip), vehicle: saline + alcohol) 102 % of control; (dose: 200.0 mg/kg/injection, schedule: Q01DX009 (ip), vehicle: saline + alcohol) 102 % of control.

In the case of `Cn1c(=O)oc2cc(NC(N)=O)c(Br)cc21`, the T/C under setting [2] was 92 % of control and the T/C under setting [3] is 87 % of control.

As for `CC1OC2COC(C)OC2C(C2CN2)O1` (stereo unspecified), the T/C by setting is: under setting [5], 110 % of control; under setting [6], 100 % of control; under setting [7], 117 % of control.

Regarding `Nc1ccn([C@@H]2C=C(CO)[C@@H](O)[C@H]2O)c(=O)n1`, the T/C is 150 % of control (dose: 0.5 mg/kg/injection, schedule: Q01DX009 (ip), vehicle: saline); 188 % of control under setting [8]; 111 % of control and 87 % of control (dose: 2.25 mg/kg/injection, schedule: Q01DX009 (ip), vehicle: saline).

For the molecule `Cc1ccc2c(c1)N(CCSc1ncn[nH]1)C(C)(C)CC2C` (stereo unspecified), the T/C reads like this: (dose: 100.0 mg/kg/injection, schedule: Q04DX002 (ip), vehicle: Klucel (hydroxypropylcellulose) (HPC)) 97 % of control; (dose: 200.0 mg/kg/injection, schedule: Q04DX002 (ip), vehicle: Klucel (hydroxypropylcellulose) (HPC)) 92 % of control; (dose: 400.0 mg/kg/injection, schedule: Q04DX002 (ip), vehicle: Klucel (hydroxypropylcellulose) (HPC)) 97 % of control.

For the molecule `CCCCCCCCSP(SCCCCCCCC)SCCCCCCCC`, the T/C is, setting by setting: under setting [9], 113 % of control; under setting [10], 106 % of control; under setting [6], 96 % of control; under setting [11], 103 % of control; under setting [7], 102 % of control and 91 % of control.

As to `O=c1oc2nc3ccc(Cl)cc3c(=O)n2c2ccc(Cl)cc12`, the T/C (dose: 50.0 mg/kg/injection, schedule: Q01DX009 (ip), vehicle: Klucel (hydroxypropylcellulose) (HPC)) is 108 % of control; the T/C (dose: 100.0 mg/kg/injection, schedule: Q01DX009 (ip), vehicle: Klucel (hydroxypropylcellulose) (HPC)) is 118 % of control; the T/C (dose: 200.0 mg/kg/injection, schedule: Q01DX009 (ip), vehicle: Klucel (hydroxypropylcellulose) (HPC)) is 104 % of control.

`CC(C)(C)C(=O)CC(Cc1nccc2ccccc12)c1ccco1` (stereo unspecified): the T/C runs as follows: under setting [9], 113 % of control; under setting [10], 106 % of control; under setting [11], 97 % of control.

`NNC1=Nc2cc3c(cc2C(=O)N2C[C@H](O)CC12)OCO3` (stereo partly specified): the T/C (dose: 100.0 mg/kg/injection, schedule: Q01DX001 (ip), vehicle: saline with Tween-80) is 100 % of control; the T/C (dose: 200.0 mg/kg/injection, schedule: Q01DX001 (ip), vehicle: saline with Tween-80) is 100 % of control; the T/C (dose: 400.0 mg/kg/injection, schedule: Q01DX001 (ip), vehicle: saline with Tween-80) is 99 % of control.

As for `CCNCC1c2ccccc2-c2nc3ccccc3nc2-c2ccccc21`, the T/C runs as follows: (dose: 100.0 mg/kg/injection, schedule: Q04DX002 (ip), vehicle: saline with Tween-80) 102 % of control; (dose: 200.0 mg/kg/injection, schedule: Q04DX002 (ip), vehicle: saline with Tween-80) 98 % of control.

Regarding `COCCOCCOCCOCCOCCOCCOCCOC(=O)CCn1cc(F)c(=O)[nH]c1=O`, the T/C (dose: 62.5 mg/kg/injection, schedule: Q04DX002 (ip), vehicle: saline) was 99 % of control; the T/C (dose: 125.0 mg/kg/injection, schedule: Q04DX002 (ip), vehicle: saline) is 108 % of control; the T/C (dose: 250.0 mg/kg/injection, schedule: Q04DX002 (ip), vehicle: saline) is 101 % of control; the T/C (dose: 500.0 mg/kg/injection, schedule: Q04DX002 (ip), vehicle: saline) is 109 % of control.

For the molecule `C=C(C)C1CCC=CC(=O)C1` (stereo unspecified), the T/C reads like this: (dose: 100.0 mg/kg/injection, schedule: Q04DX003 (ip), vehicle: Klucel (hydroxypropylcellulose) (HPC)) 107 % of control; (dose: 200.0 mg/kg/injection, schedule: Q04DX003 (ip), vehicle: Klucel (hydroxypropylcellulose) (HPC)) 116 % of control.

With `CC(=O)C(C#N)c1ccccn1` (stereo unspecified), the T/C is, setting by setting: under setting [9], 106 % of control; under setting [10], 105 % of control; under setting [11], 100 % of control.

Regarding `CCS(=O)(=O)CCN1C(=O)CN=C(c2ccccc2F)c2cc(Cl)ccc21`, the T/C runs as follows: (dose: 12.5 mg/kg/injection, schedule: Q01DX009 (ip), vehicle: saline with Tween-80) 102 % of control; (dose: 25.0 mg/kg/injection, schedule: Q01DX009 (ip), vehicle: saline with Tween-80) 104 % of control; under setting [9], 103 % of control; under setting [10], 110 % of control.

In the case of `CCN1c2ccccc2C(Cl)(c2ccc(N(C)C)cc2)c2ccccc21`, the T/C is, setting by setting: (dose: 6.25 mg/kg/injection, schedule: Q01DX009 (ip), vehicle: saline) 116 % of control; (dose: 12.5 mg/kg/injection, schedule: Q01DX009 (ip), vehicle: saline) 120 % of control.

For the molecule `CCN(CC)CCSCCCNc1cc(C)nc2c1ccc1c2ccc2c(NCCCSCCN(CC)CC)cc(C)nc21`, the T/C runs as follows: (dose: 1.56 mg/kg/injection, schedule: Q01DX009 (ip), vehicle: distilled water + Tween-80) 100 % of control; (dose: 3.12 mg/kg/injection, schedule: Q01DX009 (ip), vehicle: distilled water + Tween-80) 102 % of control; (dose: 6.25 mg/kg/injection, schedule: Q01DX009 (ip), vehicle: distilled water + Tween-80) 104 % of control; (dose: 12.5 mg/kg/injection, schedule: Q01DX009 (ip), vehicle: distilled water + Tween-80) 100 % of control.

As to `NC1(C(=O)O)CCCC1C(=O)O` (stereo unspecified), the T/C is, setting by setting: under setting [5], 99 % of control; under setting [6], 99 % of control; under setting [7], 90 % of control.

On to `CCOC(=O)n1oc2ccccc2c1=O`, for which the T/C is 99 % of control under setting [2], 98 % of control under setting [3] and 98 % of control under setting [4].

Turning to `CC(=O)C1CO1` (stereo unspecified), the T/C by setting is: (dose: 12.5 mg/kg/injection, schedule: Q01DX005 (ip), vehicle: saline) 105 % of control; (dose: 25.0 mg/kg/injection, schedule: Q01DX005 (ip), vehicle: saline) 107 % of control; under setting [1], 110 % of control and 116 % of control.

As to `O=C1C=CC(=O)N1c1ccc(Br)cc1Cl`, the T/C reads like this: under setting [8], 104 % of control; (dose: 1.8 mg/kg/injection, schedule: Q04DX003 (ip), vehicle: saline) 113 % of control; (dose: 2.0 mg/kg/injection, schedule: Q01DX009 (ip), vehicle: saline) 109 % of control; (dose: 2.6 mg/kg/injection, schedule: Q04DX003 (ip), vehicle: saline) 109 % of control; (dose: 4.0 mg/kg/injection, schedule: Q01DX009 (ip), vehicle: saline) 113 % of control; (dose: 4.0 mg/kg/injection, schedule: Q04DX003 (ip), vehicle: saline) 113 % of control. For the same molecule, the T/C (dose: 6.0 mg/kg/injection, schedule: Q04DX003 (ip), vehicle: saline) was 118 % of control.

For the molecule `C/C(=N\NC(=S)N1CC2CCC(CC2)C1)c1ccccn1`, the T/C by setting is: (dose: 1.56 mg/kg/injection, schedule: Q01DX009 (ip), vehicle: Klucel (hydroxypropylcellulose) (HPC)) 101 % of control and 118 % of control; (dose: 3.12 mg/kg/injection, schedule: Q01DX009 (ip), vehicle: Klucel (hydroxypropylcellulose) (HPC)) 107 % of control; (dose: 3.13 mg/kg/injection, schedule: Q01DX009 (ip), vehicle: Klucel (hydroxypropylcellulose) (HPC)) 120 % of control; (dose: 6.25 mg/kg/injection, schedule: Q01DX009 (ip), vehicle: Klucel (hydroxypropylcellulose) (HPC)) 115 % of control and 123 % of control; (dose: 12.5 mg/kg/injection, schedule: Q01DX009 (ip), vehicle: Klucel (hydroxypropylcellulose) (HPC)) 115 % of control.

These data come from PubChem BioAssay AID330 (DTP/NCI, 2004).
